Data from paper PMC7483467, “A small molecular compound CC1007 induces cross-lineage differentiation by inhibiting HDAC7 expression and HDAC7/MEF2C interaction in BCR-ABL1^− pre-B-ALL” (Cell Death & Disease, 2020).

Target: T1, MEF2C (Homo sapiens, UniProt Q06413)
T1 construct: endogenous intracellular protein in Nalm-6 and primary pre-B-ALL cells; untagged; detected by western blot
Test: cellular thermal shift assay (CETSA and ITDRF-CETSA), western blot read-out
Type: cell-based
Conditions: Nalm-6 and primary BCR-ABL1- pre-B-ALL cells; dose-response at 52 °C; endogenous MEF2C

T1 sequence (Q06413 whole entry): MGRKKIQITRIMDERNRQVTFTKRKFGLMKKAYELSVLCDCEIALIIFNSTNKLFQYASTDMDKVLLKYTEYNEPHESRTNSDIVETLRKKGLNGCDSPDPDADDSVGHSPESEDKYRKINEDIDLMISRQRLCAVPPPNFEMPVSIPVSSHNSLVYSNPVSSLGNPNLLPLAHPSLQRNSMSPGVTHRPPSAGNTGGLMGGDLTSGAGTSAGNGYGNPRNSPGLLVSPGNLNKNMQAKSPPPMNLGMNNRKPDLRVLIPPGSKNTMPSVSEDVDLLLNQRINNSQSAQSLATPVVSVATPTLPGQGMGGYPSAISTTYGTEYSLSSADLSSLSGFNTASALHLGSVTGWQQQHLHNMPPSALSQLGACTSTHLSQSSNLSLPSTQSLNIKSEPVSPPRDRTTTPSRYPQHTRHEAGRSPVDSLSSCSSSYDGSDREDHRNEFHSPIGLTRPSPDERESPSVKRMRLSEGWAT

With Nc1ccccc1NC(=O)CCCCCC(=O)Nc1cccc(Br)c1 [CC1007] the “thermal stabilisation (CETSA)” value was “These data indicate that CC1007 directly interacts with intracellular MEF2C”.
